Test results as given in patent publication US20020192223A1 (priority 1989, published 2002).

Columns and labels:
[1] = tested on: L2987 lung tumor xenografts; test: BR96-DOX against established subcutaneous xenografts; type: in vivo, athymic mice
Protocol: Athymic rats were transplanted subcutaneously with human lung adenocarcinoma L2987, colon carcinoma RCA, or breast carcinoma MCF7 and permitted to grow. […]
(§1) Mice and rats were administered with BR96-DOX by three injections, each injection being about four days apart. Mice which were injected intraperitoneally (IP) were given 20 mg/kg of BR96-DOX. Mice which were injected intravenously were given 10 mg/kg of BR96. Intravenous (IV) injection involved less volume of BR96 because of the constraints of injection volume, namely, only 10 mg/kg was administrable by IV.
(§2) Controls One set of controls included untreated mice and mice that received (1) DOX (at doses optimized to produce maximal antitumor activity in each model); (2) unconjugated BR96; (3) mixtures of BR96 and DOX; and (4) DOX conjugated to either normal human IgG or the control MAb SN7. Doses of DOX and MAb are presented as mg/kg/[…].
(§3) Treatment with BR96-DOX consistently cured most mice bearing L2987 (FIG. 46A) or RCA (FIG. 46B) tumors. […] Complete tumor regression (CR) refers to a tumor that for a period of time is not palpable. Partial tumor regression (PR) means a decrease in tumor volume to ≦50% of the initial tumor volume.

[2] = tested on: RCA colon carcinoma xenografts; test: as above; type: in vivo, athymic mice
Protocol: (§4) Athymic rats were transplanted subcutaneously with human lung adenocarcinoma L2987, colon carcinoma RCA, or breast carcinoma MCF7 and permitted to grow. Therapy (3 treatments 4 days apart) started 14 to 28 days after tumor transplantation when tumors were well established, i.e., when the tumors were 50 to 100 mm^3 in size.
as §1, §2, §3

[3] = tested on: L2987 spheroids inoculated IV; test: BR96-DOX against large disseminated tumors; type: in vivo, athymic mice; conditions: DOX 8 mg/kg
Excerpt: L2987 lung carcinoma cells were selected in vitro for the ability to grow as multicellular spheroids. When injected IV into athymic mice or rats, tumors developed at various sites, including lymph nodes, lung, spleen, liver, brain, subcutaneously, and ascites was formed in some animals.
Mice were inoculated IV with L2987 spheroids.
The burden of disseminated disease in these animals was so far advanced that 50% of control animals died during the first 6 days of the experiment. […] Surviving mice were sacrificed 200 days after cell inoculation and sections of lung, lymph nodes, spleen, colon, jejunum, kidney, liver, brain, and heart were examined by histology.

[4] = tested on: L2987 human lung carcinoma, subcutaneous; test: BR96-DOX against human lung tumors implanted in rats; type: in vivo, athymic Rowett rats
Excerpt: Athymic mice and athymic Rowett rats (Harlan Sprague Dawley) were used in this study.
as §4
Another set included rats using the protocol used in control mice.

parental cell line = test: In vitro 3[H]-thymidine incorporation IC50; type: cell-based
[5] = tested on: cells obtained from tumors that grew back after BR96-DOX induced regression; test: In vitro 3[H]-thymidine incorporation IC50; type: cell-based; conditions: treatment (regrown tumor cells)
[6] = Maximum tolerated dose, 3 injections 4 days apart; type: in vivo, mice; conditions: equivalent DOX dose
Protocol: The maximum tolerated dose (MTD) (equivalent DOX dose) of the BR96-DOX conjugate (administered as 3 injections 4 days apart) was 20 mg/kg administered intraperitoneally (IP). When administered intravenously (IV) the MTD was ≧10 mg/kg. This was the maximum dose that could be administered IV because of the constraints of injection volume.
The MTD of unconjugated DOX (8 mg/kg IV and 4 mg/kg IP) was lower than that of the BR96-DOX conjugate. Unconjugated DOX administered IV at the MTD produced a delay in tumor growth but no tumor regressions and if the dose was reduced to 50% of the MTD, DOX had no effect.

[7] = tested on: L2987 human lung tumor xenografts; test: Test V in vivo activity of relaxed BR64 and L6 conjugates; set-up: species or system BALB/c nu/nu mice; conditions: optimized doses of adriamycin
Protocol: The in vivo antitumor activity of immunoconjugates of adriamycin and relaxed BR64 or relaxed L6 was evaluated.
Congenitally athymic female mice of BALB/c background (BALB/C nu/nu; Harlan Sprague-Dawley, Indianapolis, Ind.) were used. Mice were housed in Thoren caging units on sterile bedding with controlled temperature and humidity. Animals received sterile food and water ad libitum.
The L2987 human tumor line was established as tumor xenograft models in athymic mice. The tumor line was maintained by serial passage in vivo. Tumors were measured in 2 perpendicular directions at weekly or biweekly intervals using calipers. Tumor volume was calculated according to the equation: [formula]
In general, there were 8-10 mice per control or treatment group. Data are presented as median tumor size for control or treated groups. Antitumor activity is expressed in terms of gross log cell kill (“LCK”) where: [formula] […]
For animals bearing the L2987 human lung tumor, therapy was typically initiated when the median tumor size was 75 mm^3(12-14 days after tumor implant). The average TVDT was 4.8±0.9 days and antitumor activity was assessed at a tumor size of 500 mm^3. […]
Materials under investigation were administered by the ip or iv route. […] Compounds were administered on a mg/kg basis calculated for each animal, and doses are presented as mg/kg of equivalent adriamycin/injection. […]

[8] = tested on: L2987 human lung tumor xenografts; test: Test VI in vivo activity of ChiBR96-ADM conjugates; set-up: species or system athymic mice
Excerpt: (§5) In general, there were 8-10 mice per control or treatment group. Data are presented as median tumor size for control or treated groups. Antitumor activity is expressed in terms of gross log cell kill (“LCK”) where: [formula]
(§6) T−C is defined as the median time (days) for treated tumors to reach target size minus the median time for control tumors to reach target size and TVDT is the time (days) for control tumors to double in volume (250-500 mm^3). Partial tumor regression (“PR”) refers to a decrease in tumor volume to ≦50% of the initial tumor volume; complete tumor regression (“CR”) refers to a tumor which for a period of time is not palpable; and cure is defined as an established tumor which is not palpable for a period of time ≧10 TVDTs.
(§7) Materials under investigation were administered by the ip or iv route. Adriamycin was diluted in normal saline; antibody and antibody/adriamycin conjugates were diluted in phosphate buffered saline. Compounds were administered on a mg/kg basis calculated for each animal, and doses are presented as mg/kg of equivalent adriamycin/injection. Immunoconjugates were administered on a q4dx3 schedule.
(§8) The antitumor activity of ChiBR96-ADM conjugates was evaluated against established human lung (“L2987”), breast (“MCF7,” obtainable from the ATCC under the accession number ATCC HTB 22; see also I. Hellström, et al., Cancer Research 50:2183 (1990)), and colon (“RCA” from M. Brattain, Baylor University; see also I. Hellström, et al., Cancer Research 50:2183 (1990)) tumors.
(§9) Animals were maintained and tumor xenograft models were established for the MCF7 and RCA and the L2987 human tumor lines as described for the L2987 in Test V. Materials were administered as described in Test V.
For animals bearing the L2987 human lung tumor, therapy typically was initiated when the median tumor size was 75 mm^3 (12-14 days after tumor implant). The average TVDT was 4.8±0.9 days and antitumor activity was assessed at a tumor size of 500 mm^3. In several experiments therapy was initiated when L2987 tumors were 225 mm^3 in size.

[9] = tested on: MCF7 human breast tumor xenografts; test: Test VI in vivo activity of ChiBR96-ADM conjugates; set-up: species or system athymic mice; conditions: ADM 6 mg/kg, iv
Excerpt: as §5, §6, §7, §8, §9
The MCF7 tumor is an estrogen-dependent human breast tumor line. Athymic mice were implanted with 0.65 mg (65 day release rate) estradiol pellets (Innovative Research of America, Toledo, Ohio) on the day of tumor implant. Therapy was initiated when the median tumor size was 100 mm^3 (typically 13 days after tumor implant).

[10] = tested on: RCA human colon tumor xenografts; test: Test VI in vivo activity of ChiBR96-ADM conjugates; set-up: species or system athymic mice
Excerpt: as §5, §6, §7, §8, §9
For animals bearing the RCA colon tumor, therapy was initiated 15 days after tumor implant when the median tumor size was 75 mm^3. The average TVDT for RCA tumor xenografts was 9.5±1.5 days and antitumor activity was assessed at 400 mm^3.

[11] = Solubility of the hydrazone during conjugation; type: physicochemical; conditions: PBS
Protocol: 3. The solution is transferred back to a round bottom flask equipped with a magnetic stirrer and kept in ice. The solution continuously is blanketed by nitrogen. The volume of the solution is noted. […] A solution of maleimidocaproyl hydrazone of adriamycin in distilled water (5 mg/mL, 6.3×10^−3 M) is prepared (notes 7, 8). The amount (in mL) of this solution needed for the conjugation is determined by the formula: [formula]
10. Brief applications of a sonicator will facilitate dissolution in distilled water. The resulting solution is stable.

COc1cccc2c1C(=O)c1c(O)c3c(c(O)c1C2=O)C[C@@](O)(C(=O)CO)C[C@@H]3O[C@H]1C[C@H](N)[C@H](O)[C@H](C)O1 [Adriamycin, adriamycin]
tumor regressions: Complete ([1]; L2987, q4dx3, DOX 8.0, no MAb): 0%
tumor regressions: Cures ([1]; L2987, q4dx3, DOX 8.0, no MAb): 0%
tumor regressions: Partial ([1]; L2987, q4dx3, DOX 8.0, no MAb): 0.8 ± 0.8%
antitumor activity ([1]; L2987 tumors 250 to 800 mm^3, optimal dose of DOX): antitumor activity was not observed
activity against established RCA tumors (growth delay or regressions) ([2]; DOX alone): not active
tumor regressions: Complete ([2]; RCA, q4dx3, DOX 8.0, no MAb): 0%
tumor regressions: Cures ([2]; RCA, q4dx3, DOX 8.0, no MAb): 0%
tumor regressions: Partial ([2]; RCA, q4dx3, DOX 8.0, no MAb): 0%
tumor regressions: Complete ([2]; mouse, in vivo): 0%
tumor regressions: Cures ([2]; mouse, in vivo): 0%
tumor regressions: Partial ([2]; mouse, in vivo): 0%
day by which 100% of the mice were dead [3]: 140 days
MTD of free DOX ([4]; 3 injections 4 days apart): 4 mg/kg
cures ([4]; rats, 4 mg/kg, 3 injections 4 days apart (MTD of free DOX)): 25%
IC50 (parental cell line): 300 ± 200 nM
IC50 [5]: 400 ± 100 nM
maximum tolerated dose (MTD) ([6]; intraperitoneally (IP)): 4 mg/kg
maximum tolerated dose (MTD) ([6]; intravenously (IV)): 8 mg/kg
LCK [7]: 1.1 LCK
CR ([8]; ADM 8 mg/kg, iv (Table 16)): 0%
Cure ([8]; ADM 8 mg/kg, iv (Table 16)): 0%
PR ([8]; ADM 8 mg/kg, iv (Table 16)): 0%
LCK ([8]; ADM 8 mg/kg, iv, q4dx3 (Table 16)): 1.5
CR ([8]; ADM 8 mg/kg, no antibody, iv): 0%
Cure ([8]; ADM 8 mg/kg, no antibody, iv): 0%
PR ([8]; ADM 8 mg/kg, no antibody, iv): 3.6%
LCK ([8]; ADM 8 mg/kg, no antibody, iv, q4dx3 (55 mice)): 1-1.8
LCK ([8]; FIG. 57, optimized adriamycin (8 mg/kg)): 1.0 LCK
LCK ([8]; FIG. 58, optimized adriamycin): 1.6 LCK
CR [9]: 0%
Cure [9]: 0%
LCK [9]: 1.4
PR [9]: 0%
CR ([10]; 10/405 mg/kg, ip): 0%
Cure ([10]; 10/405 mg/kg, ip): 0%
LCK ([10]; 10/405 mg/kg, ip): 0
PR ([10]; 10/405 mg/kg, ip): 0%
CR ([10]; ADM 8/0 mg/kg, iv): 0%
Cure ([10]; ADM 8/0 mg/kg, iv): 0%
LCK ([10]; ADM 8/0 mg/kg, iv): 0.4
PR ([10]; ADM 8/0 mg/kg, iv): 0%

COc1cccc2c1C(=O)c1c(O)c3c(c(O)c1C2=O)C[C@@](O)(/C(CO)=N/NC(=O)CCCCCN1C(=O)C=CC1=O)C[C@@H]3O[C@H]1C[C@H](N)[C@H](O)[C@H](C)O1 [hydrazone, Maleimidocaproylhydrazone of Adriamycin]
solubility [11]: not very soluble in PBS
